Source: PMC3665828 (PLoS ONE, 2013)
Entries after “also recorded” stand apart in the source; their conditions may differ. Where two headings read alike, the source gives them in different places. Each block holds one compound with its values, some of them ahead of it. Starred links: 1 amine or outer side, 2 acyl side, 3 side chain; linkers in the order of their positions; H or OH if unused. Residues, ends and D or L forms follow the SMILES beside them. No end group written: not given here. CO = O=C([*:1])[*:2]

Key:
[1] = system: angiotensin-generating proteases of immobilized human plasma proteins; assay: Incubation of immobilized human plasma proteins with ANG-1-10 in the presence of protease inhibitors (SRM-MS); type: biochemical
Description: The control was incubated with immobilized plasma proteins in the absence of inhibitors. The incubation with immobilized plasma proteins was carried out as described in “Incubation of immobilized plasma proteins”. The incubation was started by addition of ANG-1-10 to a final concentration of 10^−5 M to the immobilized plasma proteins.
The reaction products were analyzed by SRM-MS after 6 h (Figure S6).
Supplementary file pone.0064027.s006.tif: Figure S6 Processing of ANG-1-10 by immobilized human plasma proteases in the presence and abscence of protease inhibitors. […] Right y-axis: AUC of ANG-2-10 and ANG-3-10 after incubation in presence of EDTA. (TIF) Click here for additional data file.

[2] = molecular target: recombinant human aminopeptidase N (APN) (Homo sapiens, UniProt P15144); assay: Incubation of angiotensin peptides with recombinant aminopeptidase N (MALDI-MS); settings: for Cleavage products generated from the substrate by recombinant aminopeptidase N (APN): substrate 10^−5 M in HPLC-grade water, 0.25 µg recombinant human APN per 100 µl, reaction products detected by MALDI-MS
Description: (§1) At defined incubation times aliquots (10 µl) were taken from the reaction mixtures. Reaction was stopped by addition of formic acid adjusting a final concentration of 0.2% (v/v) formic acid/HPLC-grade water. Samples were analyzed by MALDI-MS (Reflex IV, Bruker) using DHB as matrix.
APN is a protease that is known to cleave ANG-2-8 between the Arg2-Val3 in vitro [22] and in vivo [23], [24]. Thus it is a potential protease for the generation of ANG-3-10.

[3] = system: immobilized mouse plasma proteins
Description: (§2) Heparinized (10 IU/ml) mouse and rat blood (200 µl) was obtained from the caudal vein. Plasma was isolated from all blood samples by centrifugation (4–16 K, Sigma) 4000×g for 15 min.
(§3) For the immobilization of plasma proteins CNBr-activated Sepharosebeads® 6MB (GE Healthcare) were used. Protein immobilization was perfomed as described in the product information sheet for CNBr-activated Sepharosebeads® (Sigma Aldrich) except for modifications described in the supporting information part “immobilization of plasma proteins” (Methods S1).
Incubation of immobilized plasma proteins and the control samples (glycine derivatized Sepharosebeads® without immobilized proteins and heat inactivated immobilized plasma proteins for the incubation with ANG-1-10) was started by addition of the individual angiotensin peptides (final concentration of 10^−5 M, solved in HPLC-grade water, Lichrosolve, Merck) to the beads. Incubation was carried out at 37°C on a rotating shaker. […]
To investigate the processing of ANG-1-10 by human plasma proteases we used a mass spectrometry based enzyme screening (MES) system [20]. Therefore immobilized murine and human plasma proteins were incubated with ANG-1-10 and the reaction products were analyzed by mass spectrometry. […]
ANG-1-10 (10^−5 M) was incubated with immobilized mouse plasma proteins. Reaction products were detected by MALDI-MS after 0 h, 3 h, 4 h and 8 h. […]

[4] = system: immobilized human plasma proteins; assay: Incubation of angiotensin peptides with immobilized human plasma proteins; type: in vitro ADME
Description: For incubation experiments human venous citrate blood (ratio 1∶9, blood to sodium citrate 3,13% (Eifelfango)) was obtained by catheterization from the cubital vein of a healthy volunteer (blood pressure: normal, <120/80 mmHg).
Analysis of the reaction by SRM was performed on a LC-ESI-QQQ-MS system. Exoproteolytic processing of these angiotensin peptides requires the presence of plasma proteases which are able to cognate and cleave the intermediate angiotensin peptides. […] When ANG-5-10 was incubated in presence of human immobilized plasma proteins time the dependent generation of ANG-6-10 was detected. After an incubation period of 8 h nearly no angiotensin peptides were detected in any of the reaction mixtures.
Dry Sepharosebeads® were swollen in 10 ml 0.1 mM hydrochloric acid/ HPLC (high pressure liquid chromatography)-grade water for 30 min on a rotating shaker. Subsequently they were washed repeatedly with HPLC-grade water (Lichrosolve, Merck). Afterwards Sepharosebeads® were equilibrated by multiple washing steps with protein coupling buffer (100 mM NaHCO3, 500 mM NaCl, pH 8,3). For protein immobilization plasma samples with a volume of 40 µl were mixed with coupling buffer in a ratio of 1:6 and mixed with the prepared Sepharosebeads® followed by incubation for 2h on a rotating shaker (room temperature). As a control heat inactivated plasma (boiled for 5 min) was immobilized. A volume of 40 µl swollen Sepharosebeads® was used per sample. After protein immobilization the Sepharosebeads® were washed three times with HPLC-grade water. Free binding sites of the Sepharosebeads® were saturated by incubation with blocking buffer (100 mM NaHCO3,500 mM NaCl, pH 8,3, 1 M Glycine, pH 8,3) for 2h on a rotating shaker (room temperature).

[5] = system: non-immobilized human plasma
Description: From this blood sample an aliquot of 10 ml was saved for the incubation experiments. The rest of the blood sample was immediately mixed with protease inhibitor cocktail (including 2 mM AEBSF, 0.3 µM aprotinin, 130 µM bestatin, 1 mM EDTA, 14 µM E-64 and 1 µM leupeptin (Sigma-Aldrich)) in a ratio of 1∶50.
For incubation of non-immobilized plasma a reaction volume of 200 µl non-immobilized undiluted and diluted plasma (1∶100 in HPLC-grade water) was used per sample. Incubation was started by addition of ANG-1-10 to a final concentration of 10^−5 M. Incubation was carried out at 37°C on a rotating shaker. As a control 200 µl of a 10^−5 M ANG-1-10 solution without plasma was incubated under the same conditions.
The reaction products derived from the incubation of non-immobilized plasma proteins were desalted by solid phase extraction (Hydophilic lipophilic balance (HLB) µElution plate, Waters). The HLB material was equilibrated by three washing steps with 0.2% formic acid/HPLC-grade water by centrifugation of the plate for 1 min with 500×g. Next, the sample was applied to the HLB material and centrifuged for 2 min with 200×g. The flow-through was discarded and unbound molecules were removed by washing the HLB material 3 times with 0.2% formic acid/HPLC-grade water by centrifugation of the plate for 2 min with 500×g. […]

[6] = system: immobilized rat plasma proteins
Description: as §2, §3
Incubation of immobilized plasma proteins and the control samples (glycine derivatized Sepharosebeads® without immobilized proteins and heat inactivated immobilized plasma proteins for the incubation with ANG-1-10) was started by addition of the individual angiotensin peptides (final concentration of 10^−5 M, solved in HPLC-grade water, Lichrosolve, Merck) to the beads. Incubation was carried out at 37°C on a rotating shaker. The final reaction volume of the samples was 30 µl.
Identification of the reaction products was done by comparison of the m/z values of the peaks in the mass spectra with the theoretical m/z values (Table S2) of possible angiotensin peptide products.
ANG-1-10 (10^−5 M) was incubated with immobilized rat plasma proteins. Reaction products were detected by MALDI-MS after 0 h, 1 h, 3 h and 8 h.

[7] = system: recombinant human aminopeptidase N (APN); assay: 0.25 µg recombinant human aminopeptidase N in 100 µl angiotensin solution; settings: up to 24 h
[8] = molecular target: recombinant human ACE-1 (Homo sapiens, UniProt P12821); assay: Incubation of angiotensin peptides with recombinant ACE-1 (MALDI-MS); settings: peptide 10^−5 M, 0.25 µg recombinant human ACE-1, MALDI-MS after 8 h
Description: as §1
It is known that ACE-1 generates ANG-1-8 by removal of the last two C-terminal amino acids (His9-Leu10) of ANG-1-10. […] The reaction products were analyzed by MALDI-MS (Figure S7).
Supplementary file pone.0064027.s007.tif: Figure S7 Processing of angiotensin peptides by recombinant ACE-1. […] ACE-1 was incubated with A) ANG-1-10, B) ANG-2-10, C) ANG-3-10, D) ANG-4-10, E) ANG-5-10. Reaction products were analyzed by MALDI-MS after an incubation time of 8 h. MALDI-MS-Signals which were assigned as angiotensin peptides are marked by arrows. (TIF) Click here for additional data file.

[9] = immobilized human plasma proteins (CNBr-activated Sepharosebeads); settings: 37°C, up to 24 h
[10] = system: angiotensin converting enzyme-1 (ACE-1); assay: 0.25 µg recombinant human ACE-1 in 100 µl angiotensin solution; settings: up to 8 h
[11] = system: APN; assay: in vitro and in vivo; settings: cited from earlier work
[12] = system: anti ANG-1-10 antibody (rabbit polyclonal); settings: rabbit polyclonal antibody of the kit; ref Fluorescent EIA Kit, phoenix pharmaceuticals; cited from earlier work
Description: The RP-HPLC plasma peptide fractionations corresponding to the retention times of the synthetic angiotensin peptides were analyzed by an immuno-fluorescence assay that was originally manufactured for the quantification of ANG-1-10.

[13] = rat blood; settings: cited from earlier work
[14] = ANG-1-10 10^−5 M, immobilized human plasma proteins, 200 µM AEBSF, 50 µM antipain, 150 µM bestatin, 100 µM EDTA, SRM-MS after 6 h, mean ± SEM, n = 3
[15] = ANG-1-10 10^−5 M, immobilized human plasma proteins, 200 µM AEBSF, 50 µM antipain, 150 µM bestatin, 10 µM captopril, 100 µM chymostatin, 100 µM EDTA, SRM-MS after 6 h, mean ± SEM, n = 3
[16] = substrate 10^−5 M, immobilized human plasma proteins, 37°C, SRM-MS (LC-ESI-QQQ-MS) / MALDI-MS

recombinant human aminopeptidase N (APN) (Homo sapiens, UniProt P15144), sequence (P15144 whole entry): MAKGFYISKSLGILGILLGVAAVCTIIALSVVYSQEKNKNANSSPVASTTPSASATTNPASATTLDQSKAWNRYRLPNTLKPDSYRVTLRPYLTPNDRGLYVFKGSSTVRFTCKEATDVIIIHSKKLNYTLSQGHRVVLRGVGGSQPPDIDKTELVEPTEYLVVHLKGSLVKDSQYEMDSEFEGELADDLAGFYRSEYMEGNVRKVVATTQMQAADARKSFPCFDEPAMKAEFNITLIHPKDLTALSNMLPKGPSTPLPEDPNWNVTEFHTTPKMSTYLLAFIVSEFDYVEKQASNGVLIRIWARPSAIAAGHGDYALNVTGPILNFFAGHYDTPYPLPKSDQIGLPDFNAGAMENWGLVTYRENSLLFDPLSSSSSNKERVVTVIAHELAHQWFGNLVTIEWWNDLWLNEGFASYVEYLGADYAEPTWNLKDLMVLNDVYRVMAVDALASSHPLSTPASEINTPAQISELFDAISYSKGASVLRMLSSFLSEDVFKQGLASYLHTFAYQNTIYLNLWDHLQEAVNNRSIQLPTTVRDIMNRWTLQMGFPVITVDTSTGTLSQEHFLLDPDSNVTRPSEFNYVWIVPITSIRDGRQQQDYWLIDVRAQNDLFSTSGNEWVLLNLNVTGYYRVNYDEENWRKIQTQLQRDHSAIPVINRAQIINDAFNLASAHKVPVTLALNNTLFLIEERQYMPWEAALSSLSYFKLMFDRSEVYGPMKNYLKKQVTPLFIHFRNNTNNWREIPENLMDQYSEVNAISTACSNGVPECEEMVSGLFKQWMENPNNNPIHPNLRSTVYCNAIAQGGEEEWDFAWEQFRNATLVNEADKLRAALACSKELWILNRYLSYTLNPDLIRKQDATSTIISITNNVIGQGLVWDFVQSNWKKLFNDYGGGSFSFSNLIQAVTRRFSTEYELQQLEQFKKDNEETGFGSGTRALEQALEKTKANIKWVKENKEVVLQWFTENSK
recombinant human ACE-1, sequence (P12821 30-1306): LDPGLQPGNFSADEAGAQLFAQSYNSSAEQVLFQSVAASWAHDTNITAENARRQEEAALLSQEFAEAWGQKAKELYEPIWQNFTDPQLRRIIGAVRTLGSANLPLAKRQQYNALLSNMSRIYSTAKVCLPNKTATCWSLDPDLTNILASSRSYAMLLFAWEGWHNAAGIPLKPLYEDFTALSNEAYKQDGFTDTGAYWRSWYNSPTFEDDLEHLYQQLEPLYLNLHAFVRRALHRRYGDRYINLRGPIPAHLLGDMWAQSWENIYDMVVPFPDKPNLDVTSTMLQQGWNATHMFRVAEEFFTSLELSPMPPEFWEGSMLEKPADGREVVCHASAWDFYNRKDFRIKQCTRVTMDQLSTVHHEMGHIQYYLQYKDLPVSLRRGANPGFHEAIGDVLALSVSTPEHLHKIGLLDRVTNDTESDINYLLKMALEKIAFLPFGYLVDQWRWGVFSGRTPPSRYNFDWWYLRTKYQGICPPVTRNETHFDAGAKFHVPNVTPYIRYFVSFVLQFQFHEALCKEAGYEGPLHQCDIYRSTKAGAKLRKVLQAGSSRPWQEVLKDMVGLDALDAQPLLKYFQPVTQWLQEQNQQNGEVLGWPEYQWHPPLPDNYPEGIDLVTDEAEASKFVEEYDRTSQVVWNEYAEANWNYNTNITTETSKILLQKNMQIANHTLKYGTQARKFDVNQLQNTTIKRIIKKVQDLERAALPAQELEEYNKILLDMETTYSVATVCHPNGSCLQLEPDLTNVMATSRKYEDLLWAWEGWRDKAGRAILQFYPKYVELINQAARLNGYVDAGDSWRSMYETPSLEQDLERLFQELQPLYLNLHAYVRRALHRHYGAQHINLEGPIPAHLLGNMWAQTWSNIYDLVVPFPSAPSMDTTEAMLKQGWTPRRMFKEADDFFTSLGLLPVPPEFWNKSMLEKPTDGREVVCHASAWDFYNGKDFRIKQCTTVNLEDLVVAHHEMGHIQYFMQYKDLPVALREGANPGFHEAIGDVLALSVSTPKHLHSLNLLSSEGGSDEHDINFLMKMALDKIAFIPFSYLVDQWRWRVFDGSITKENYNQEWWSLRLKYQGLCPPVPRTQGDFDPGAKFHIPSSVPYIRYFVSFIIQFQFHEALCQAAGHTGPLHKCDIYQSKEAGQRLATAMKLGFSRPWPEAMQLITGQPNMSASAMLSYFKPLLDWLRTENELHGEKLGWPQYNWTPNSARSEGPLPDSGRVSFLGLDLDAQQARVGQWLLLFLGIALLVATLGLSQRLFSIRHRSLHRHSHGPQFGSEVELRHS

Compound: NCCc1ccc(S(=O)(=O)F)cc1 [AEBSF]
- Change of ANG-3-10-generating activity in the presence of inhibitor [1, 14]: inhibited

Compound: CC(C)[C@H](NC(=O)[C@H](CCCNC(=N)N)NC(=O)N[C@@H](Cc1ccccc1)C(=O)O)C(=O)N[C@H](C=O)CCCNC(=N)N [Antipain] ({Phe-CO}-Arg-Val-Arg-aldehyde)
- Change of ANG-6-10-generating activity in the presence of inhibitor [1]: slightly inhibited
- Change of ANG-2-10-generating activity in the presence of inhibitor ([1]; ANG-1-10 10^−5 M, immobilized human plasma proteins, 50 µM antipain, 150 µM bestatin, 100 µM EDTA, SRM-MS after 6 h, mean ± SEM, n = 3): −0.12±0.023
- Change of ANG-4-10-generating activity in the presence of inhibitor ([1]; ANG-1-10 10^−5 M, immobilized human plasma proteins, 50 µM antipain, SRM-MS after 6 h, mean ± SEM, n = 3): -0.21±0.05
- Change of ANG-3-10-generating activity in the presence of inhibitor [1, 14]: inhibited

Compound: CC(C)C[C@H](NC(=O)[C@@H](O)[C@H](N)Cc1ccccc1)C(=O)O [Bestatin]
- Change of ANG-6-10-generating activity in the presence of inhibitor [1, 15]: 0.76±0.14
- Change of ANG-3-10-generating activity in the presence of inhibitor [1, 14]: Higher amounts

Compound: C[C@H](CS)C(=O)N1CCC[C@H]1C(=O)O [Captopril]
- Change of ANG-6-10-generating activity in the presence of inhibitor [1, 15]: 0.98±0.32

Compound: CC(C)C[C@H](NC(=O)[C@@H](NC(=O)N[C@@H](Cc1ccccc1)C(=O)O)[C@@H]1CCN=C(N)N1)C(=O)N[C@H](C=O)Cc1ccccc1 [Chymostatin]
- Change of ANG-6-10-generating activity in the presence of inhibitor [1]: 1.30±0.14

Compound: O=C(O)CN(CCN(CC(=O)O)CC(=O)O)CC(=O)O [EDTA]
- Change of ANG-3-10-generating activity in the presence of inhibitor [1, 14]: 3.4±0.8

Compound: RVYIHPF
- cleaved bond [11]: Arg2-Val3

Compound: RVYIHPF [ANG-2-8, angiotensin peptide also known as AIII]
- Cross reactivity with the anti ANG-1-10 antibody [12]: no cross reactivity

Compound: YIHPFHL [ANG-4-10]
- Reaction product generated by recombinant ACE-1 [8]: ANG-4-8
- Cleavage products generated from the substrate by recombinant aminopeptidase N (APN) [2]: IHPFHL; also recorded: HPFHL

Further lines, with some results ahead:

- Cleavage products generated from the substrate by recombinant aminopeptidase N (APN) [2]: none
Compound: CC[C@H](C)[C@H](NC(=O)[C@H](Cc1ccc(O)cc1)NC(=O)[C@@H](NC(=O)[C@H](CCCNC(=N)N)NC(=O)[C@@H](N)CC(=O)O)C(C)C)C(=O)N[C@@H](Cc1cnc[nH]1)C(=O)N1CCC[C@H]1C(=O)N[C@@H](Cc1ccccc1)C(=O)O [ANG-1-8, angiotensin II]

- Only reaction products left after 8 h of incubation, mouse plasma [3]: ANG-1-8
- Only reaction products left after 8 h of incubation, rat plasma [6]: ANG-1-7, ANG-1-8 and ANG-5-10
Compound: DRVYIHPFHL [ANG-1-10, angiotensin I]
- Reaction products generated from the substrate by immobilized mouse plasma proteins [3]: ANG-1-8 (m/z 1046.5), ANG-1-7 (m/z 899.5), ANG-2-10 (m/z 1181.7), ANG-3-10 (m/z 1025.6), ANG-4-10 (m/z 926.5), ANG-5-10 (m/z 763.4)
- Reaction products generated from the substrate by immobilized human plasma proteins [4]: A-1-9, ANG-1-8, ANG-1-7, ANG-2-10, ANG-3-10, ANG-4-10, ANG-5-10 and ANG-6-10
- Reaction products generated from the substrate by non-immobilized human plasma proteins [5]: A-1-9, ANG-1-8, ANG-1-7, ANG-2-10, ANG-3-10, ANG-4-10, ANG-5-10 and ANG-6-10
- Reaction products generated from the substrate by immobilized rat plasma proteins [6]: ANG-1-8 (m/z 1046.5), ANG-1-7 (m/z 899.5), ANG-2-10 (m/z 1181.7), ANG-3-10 (m/z 1025.6), ANG-4-10 (m/z 926.5), ANG-5-10 (m/z 763.4)

- not cleaved [7]: not further degraded by APN within 24 h
Compound: HPFHL

- Reaction product generated by recombinant ACE-1 [8]: no cleavage product was observed
- Stability towards APN ([2]; within 24 h of incubation with recombinant APN, MALDI-MS): not further degraded
Compound: HPFHL [ANG-6-10]

- fragment found [9]: ANG-6-10
- cleaved bond [10]: F8-His9
- fragment found [7]: ANG-6-10
Compound: IHPFHL

- Reaction products generated from the substrate by immobilized human plasma proteins [4, 16]: ANG-6-10
- Reaction product generated by recombinant ACE-1 [8]: ANG-5-8
- Cleavage products generated from the substrate by recombinant aminopeptidase N (APN) [2]: HPFHL
Compound: IHPFHL [ANG-5-10]

- cleaved bond [10]: F8-His9
Compound: RVYIHPFHL
- fragment found [9]: ANG-3-10; also recorded: ANG-4-10; also recorded: ANG-5-10; also recorded: ANG-6-10; also recorded: ANG-2-8, 8 h; also recorded: ANG-3-8, 8 h; also recorded: ANG-4-8, 8 h
- fragment found [13]: ANG-2-8
- fragment found [7]: ANG-3-10, 1 h; also recorded: ANG-4-10, 1 h; also recorded: ANG-5-10, 4 h; also recorded: ANG-6-10, 8 h

- Reaction product generated by recombinant ACE-1 [8]: ANG-2-8
Compound: RVYIHPFHL [ANG-2-10]
- Further reaction products detected by MALDI-MS after 8 h of incubation ([4]; substrate 10^−5 M, immobilized human plasma proteins, 37°C, MALDI-MS after 8 h): ANG-2-8 (m/z 931.5), ANG-3-8 (m/z 775.4) and ANG-4-8 (m/z 676.3)
- Reaction products generated from the substrate by immobilized human plasma proteins [4, 16]: ANG-3-10, ANG-4-10, ANG-5-10 and ANG-6-10
- Cleavage products generated from the substrate by recombinant aminopeptidase N (APN) [2]: VYIHPFHL; also recorded: YIHPFHL; also recorded: IHPFHL; also recorded: HPFHL

- cleaved bond [10]: F8-His9
Compound: VYIHPFHL
- fragment found [9]: ANG-4-10; also recorded: ANG-5-10; also recorded: ANG-6-10
- fragment found [7]: ANG-4-10, 1 h; also recorded: ANG-6-10, 1 h

- Reaction products generated from the substrate by immobilized human plasma proteins [4, 16]: ANG-4-10, ANG-5-10 and ANG-6-10
- Reaction product generated by recombinant ACE-1 [8]: ANG-3-8
- Cleavage products generated from the substrate by recombinant aminopeptidase N (APN) [2]: YIHPFHL; also recorded: HPFHL
Compound: VYIHPFHL [ANG-3-10]

- fragment found [9]: ANG-5-10; also recorded: ANG-6-10
- cleaved bond [10]: F8-His9
Compound: YIHPFHL
- fragment found [7]: ANG-5-10, 1 h; also recorded: ANG-6-10, 1 h
